Experimental data reported in article PMC12295927, “Design, Synthesis, and Testing of 1,2,3-Triazolo-Quinobenzothiazine Hybrids for Cytotoxic and Immunomodulatory Activity” (International Journal of Molecular Sciences, 2025).

Columns and labels:
HCT116 cells = assay: DAPI staining for nuclear morphology and apoptosis, HCT116; format: cell-based, Human; settings: HCT116, 100 μM, 24 h
Description: (§1) The BEAS-2B, NHDF, HCT116, MCF7, SH-SY5Y, A549 cell lines studied were cultured in DMEM medium supplemented with 10% fetal bovine serum (FBS) and 1% penicillin/streptomycin solution. Cells were seeded at 1 × 10^4 per well in 96-well plates and incubated for 24 h under standard culture conditions: temperature 37 °C, 5% CO2, 95% humidity. After 24 h, compounds from the MJ1–MJ20 group were added to individual wells at different concentrations (6.25 µM, 12.5 µM, 25 µM, 50 µM, 100 µM). The control consisted of cells grown only in medium without the addition of chemical compounds. After 24 h of incubation, cells were observed under a microscope (JuLI™ FL Live fluorescence microscope from NanoEntek, Martinsried, Germany), documenting morphological changes. Observations included visual assessments of confluence, cell shape, arrangement, and interaction with the substrate. The Supplementary Materials include a comprehensive collection of microscopic images showing the morphology of the tested cell lines (BEAS-2B, NHDF, HCT116, MCF7, SH-SY5Y, A549) after 24 h of incubation with compounds MJ1–MJ20. These images illustrate the effects of the compounds on cell shape, density, and adhesion. The images are provided as a separate PDF file for further reference. For apoptosis observations, the samples of BEAS-2B and HCT116 cells were additionally fixed with 4% paraformaldehyde (PFA) after 24 h of incubation with, or without selected compounds (Section 2.6) and DAPI stained for apoptotic bodies visualization (Fluoromount-G™ medium with DAPI dye; Thermo Fisher Scientific, Waltham, MA, USA). The samples were visualized using fluorescent microscopy AXIO IMAGER M1 by ZEISS, DAPI channel and 20x magnification. The percent of counted cells with apoptotic nucleus was defined in comparison to all visualized events.
(§2) BEAS-2B and HCT116 cells were seeded into culture plates at 5 × 10^3 cells per well using 0.5 mL of RPMI-1640 medium (for BEAS-2B) or DMEM (for HCT116). The plates were incubated for 24 h at 37 °C in an atmosphere containing 5% CO2. After incubation, the medium was removed and compounds MJ2, MJ8, MJ15, and MJ19 were added in the appropriate medium at a concentration of 100 μM. The plates were incubated for 24 h at 37 °C in an atmosphere containing 5% CO2. After incubation, the medium was removed, and 500 µL of 4% paraformaldehyde (PFA) was added to each well to fix the cells. Incubation continued for 10 min at room temperature. After removal of the PFA, the wells were rinsed with 500 µL of PBS (5 min of incubation) and then with distilled water. The cells were allowed to dry at room temperature. After drying, the cells were stained with DAPI. Observations were made using a fluorescence microscope AXIO IMAGER M1 by ZEISS at 20x magnification.

AIFM2 gene = assay: RT-qPCR AIFM2 gene expression in BEAS-2B; format: cell-based, Human; settings: 24 h; for AIFM2 expression increase: 100 μM, compared to control; for fold induction at 100 µM: Homo sapiens, reference gene RPL41, vs untreated control, read-out: Relative level of expression, AIFM2 gene
Description: (§3) Real-time polymerase chain reaction was performed for the reference gene RPL41 (ribosomal protein L41) and the tested genes: BCL2, AIFM2, MDM2, IL6 and IL8. […] The BEAS-2B line was selected for the experiment. The expression level of selected genes was measured after 24 h of incubation with the tested substances MJ1–MJ20 at a concentration of 100 μM (Table 3).
The RT-qPCR experiment was performed for the BEAS-2B cell line. In this experiment, the AIFM2 gene was studied and RPL41 was used as reference gene (Figure 16).
(§4) Gene expression studies used quantitative RT-qPCR to assess the effect of the tested quinobenzothiazines (MJ1–MJ20) on the expression of apoptosis-related genes (BCL2, AIFM2, MDM2) and pro-inflammatory cytokines (IL6, IL8) (Table 4).
(§5) BEAS-2B and HCT116 cells were seeded in 6-well plates at 2 × 10^5 cells per well and cultured in RPMI-1640 (BEAS-2B) or DMEM (HCT116) medium supplemented with 10% FBS and 1% penicillin/streptomycin at 37 °C, 5% CO2 and 95% humidity. After 24 h of incubation, the tested compounds were added at a concentration of 100 µM. After 24 h, the medium was removed from the cells, washed with PBS solution, 0.5 mL of trypsin was added per well and after 5 min it was neutralized with medium. The obtained cell suspension was centrifuged for 3 min at 2000 rpm, the supernatant was removed, and the obtained pellet was suspended in 400 µL of phenozol. Samples were frozen at −20 °C and stored until further experiment and RNA isolation.
(§6) Total RNA was isolated from cells using the A&A Biotechnology Total RNA Mini kit according to the manufacturer’s protocol. RNA quality and quantity were assessed using a NanoDrop 2000 spectrophotometer at 260/280 nm. Reverse transcription was performed using the protocol (EURx NG dART RT Kit) to obtain cDNA. After incubation, samples were placed in a freezer (−20 °C) and stored until further analysis.
(§7) The experiment was performed according to the protocol (Brilliant III Ultra Fast SYBR® Green QPCR Master Mix, Quick Reference Guide for the Bio-Rad CFX96 Real-Time PCR Detection System). RT-qPCR reaction was performed using specific primers for target genes (BCL2, AIFM2, MDM2, IL6, IL8). Gene expression was normalized to the expression of the reference gene RPL41. Reaction profiles and results were performed using Bio-Rad CFX Maestro 1.1 software from Bio-Rad. Analysis and calculations of the results obtained during RT-qPCR were performed using Microsoft Excel.
(§8) The results were analyzed using the R = 2^−ΔΔCt method, which allows for determining the relative level of gene expression (R) compared to the control. Each experiment was performed in three technical and biological replicates. RT-qPCR allowed for precise assessment of changes in the expression of genes related to the processes of apoptosis and inflammatory response under the influence of quinobenzothiazines, which allowed for identifying their potential mechanisms of action at the molecular level.

IL8 gene [1] = assay: RT-qPCR IL8 gene expression in BEAS-2B; format: cell-based; settings: Homo sapiens, 24 h, reference gene RPL41, vs untreated control, read-out: Relative level of expression, IL8 gene
Description: as §3
The RT-qPCR experiment was performed for the BEAS-2B cell line. In this experiment, the IL6 and IL8 genes were studied and RPL41 was used as a reference gene (Figure 17 and Figure 18).
as §4, §5, §6, §7, §8

BEAS-2B cells = assay: DAPI staining for nuclear morphology and apoptosis, BEAS-2B; format: cell-based, Human; settings: 100 μM, 24 h
Description: as §1, §2

IL8 gene [2] = assay: RT-qPCR IL8 gene expression in HCT116; format: cell-based, Human; settings: HCT116, 100 μM, 24 h, vs untreated control
Description: (§9) In each of the four compound groups: MJ1–MJ5, MJ6–MJ10, MJ11–MJ15, and MJ16–MJ20, one compound was selected based on the best IC50 value and a distinctive gene expression profile (BCL2, MDM2, AIFM2, IL6, IL8).
as §4
(§10) BEAS-2B and HCT116 cells were seeded in 6-well plates at 2 × 10^5 cells per well and cultured in RPMI-1640 (BEAS-2B) or DMEM (HCT116) medium supplemented with 10% FBS and 1% penicillin/streptomycin at 37 °C, 5% CO2 and 95% humidity. After 24 h of incubation, the tested compounds were added at a concentration of 100 µM. After 24 h, the medium was removed from the cells, washed with PBS solution, 0.5 mL of trypsin was added per well and after 5 min it was neutralized with medium. […]
(§11) Total RNA was isolated from cells using the A&A Biotechnology Total RNA Mini kit according to the manufacturer’s protocol. RNA quality and quantity were assessed using a NanoDrop 2000 spectrophotometer at 260/280 nm. […]
(§12) The results were analyzed using the R = 2^−ΔΔCt method, which allows for determining the relative level of gene expression (R) compared to the control. […]

IL6 gene = assay: RT-qPCR IL6 gene expression in HCT116; format: cell-based, Human; settings: HCT116, 100 μM, 24 h, vs untreated control
Description: as §9, §4, §10, §11, §12

MDM2 gene = assay: RT-qPCR MDM2 gene expression in HCT116; format: cell-based, Human; settings: HCT116, 100 μM, 24 h, vs untreated control
Description: as §9, §4, §10, §11, §12

| Structure (SMILES) | Apoptotic changes in cell nuclei (DAPI) (HCT116 cells) | AIFM2 expression increase (AIFM2 gene) [fold] | fold induction at 100 µM (AIFM2 gene) | fold induction at 100 µM (IL8 gene [1]) | Apoptotic changes in cell nuclei (DAPI) (BEAS-2B cells) | Relative level of expression, IL8 gene (IL8 gene [2]) | Relative level of expression, IL6 gene (IL6 gene) | Relative level of expression, MDM2 gene (MDM2 gene) |
| --- | --- | --- | --- | --- | --- | --- | --- | --- |
| CSc1ccc2c(c1)Sc1cc3ccccc3nc1N2Cc1cn(Cc2ccc(C#N)cc2)nn1 [MJ19, 4-((4-((9-Methylthioquino[3,2-b]benzo[1,4]thiazin-6-yl)methyl)-1H-1,2,3-triazol-1-yl)methyl)benzonitrile] | no significant apoptotic changes | 14.9 | 14.9 | 12.8 | no significant apoptotic changes |  |  |  |
| Fc1ccc2c(c1)Sc1cc3ccccc3nc1N2Cc1cn(Cc2ccc(Cl)cc2)nn1 [MJ8, 9-Fluoro-6-[(1-(4-chlorobenzyl)-1H-1,2,3-triazol-4-yl)methyl]-quino[3,2-b]benzo-[1,4]thiazine] | no significant apoptotic changes |  | 4.2 | 4 | no significant apoptotic changes | 6.95 | 6.55 |  |
| Clc1ccc2c(c1)Sc1cc3ccccc3nc1N2Cc1cn(CSc2ccccc2)nn1 [MJ15, 9-Chloro-6-((1-((phenylthio)methyl)-1H-1,2,3-triazol-4-yl)methyl)-quino[3,2-b]benzo[1,4]thiazine] | no significant apoptotic changes |  | 2.6 | 5 | no significant apoptotic changes |  | 5.56 | 3.73 |
| Fc1ccc(Cn2cc(CN3c4ccccc4Sc4cc5ccccc5nc43)nn2)cc1 [MJ2, 6-((1-(4-Fluorobenzyl)-1H-1,2,3-triazol-4-yl)methyl)-quino[3,2-b]benzo[1,4]thiazine] | no significant apoptotic changes | 11.4 | 11.4 | 0.4 | no significant apoptotic changes |  |  |  |
